# Reference: ChEMBL document CHEMBL1130066, “Toward a novel metal-based chemotherapy against tropical diseases. 3. Synthesis and antimalarial activity in vitro and in vivo of the new gold-chloroquine complex [Au(PPh3)(CQ)]PF6” (J Med Chem, 1997)
# Legend:
# [1] = system: Plasmodium falciparum; assay: In vitro growth inhibition as IC50 against chloroquine-resistant Plasmodium falciparum FcB1; type: functional, organism-based
# [2] = system: Plasmodium falciparum; assay: In vitro growth inhibition as IC50 against chloroquine-resistant Plasmodium falciparum FcB2; type: functional, organism-based
# [3] = system: Mus musculus; assay: In vivo activity against Plasmodium berghei parasitaemia.; type: functional, organism-based
# [4] = system: Mus musculus; assay: In vivo activity against Plasmodium berghei parasitaemia; type: functional
molecule,measurement,setting,value
4N-(4-diethylamino-1-methylbutyl)-7-chloro-4-quinolinamine 1-N-[Au(PPh3)] compound with PF6- [listing 1 of 2 here],IC50,[1],0.0051 µM
same,IC50,[2],0.023 µM
4N-(4-diethylamino-1-methylbutyl)-7-chloro-4-quinolinamine 1-N-[Au(PPh3)] compound with PF6- [listing 2 of 2 here],Parasitemia,[3],7%
CCN(CC)CCCC(C)Nc1ccnc2cc(Cl)ccc12.O=P(O)(O)O.O=P(O)(O)O (centres undefined) [CHLOROQUINE PHOSPHATE],Parasitemia,[4],25%
